Data: the supplement of paper PMC5579334
± gives the standard deviation of the averaged measurements.

How the values were obtained:
[1] = tested on: HSC2 (primary human Schwann cells); assay: drug sensitivity score (DSS, CellTox-Green cytotoxicity, 72 h) (DSS (dimensionless)); higher = more cytotoxic; extreme values may be limits of the assay
Outline: (§1)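 For 72 h at 37 °C, MPNST cell lines and primary human Schwann cells were exposed in 384-well plates to five 10-fold compound dilutions. CellTox-Green, added before seeding at a final 1:1000 dilution, gave fluorescence from DNA released by disrupted cells. Signals were scaled to vehicle and positive-control wells, cultures failing plate quality control were left out, and four-parameter logistic fits were applied. Relative IC50 and drug sensitivity score were derived from the fits, with IC50 censored at the top concentration.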

HS-PSS [2] = assay: as above
Outline: as §1

STS26T [3] = assay: as above
Outline: as §1

ST8814 [4] = assay: as above
Outline: as §1

[5] = tested on: HSC1 (primary human Schwann cells); assay: as above
Outline: as §1

S1507-2 [6] = assay: as above
Outline: as §1

[7] = tested on: HSC2 (primary human Schwann cells); assay: % inhibition of CellTiter-Glo viability at highest tested concentration (72 h), relative to DMSO and benzethonium chloride controls; higher = more inhibition
Outline: (§2)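 MPNST cell lines and primary human Schwann cells were seeded at 750–1000 cells per well into 384-well plates preprinted with each compound at five concentrations in 10-fold steps, then incubated 72 h at 37 °C, 5% CO2. CellTiter-Glo ATP luminescence gave viability, scaled between vehicle and positive-control wells, with duplicates averaged where present. Curves were fitted with a four-parameter logistic model. Percent inhibition refers to the top concentration, while drug sensitivity score and relative IC50, censored at the top concentration, come from these fits.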

HS-PSS [8] = assay: as above
Outline: as §2

STS26T [9] = assay: as above
Outline: as §2

S462 [10] = assay: as above
Outline: as §2

HS-Sch-2 [11] = assay: as above
Outline: as §2

ST8814 [12] = assay: as above
Outline: as §2

[13] = tested on: HSC1 (primary human Schwann cells); assay: as above
Outline: as §2

YST-1 [14] = assay: as above
Outline: as §2

S1507-2 [15] = assay: as above
Outline: as §2

[16] = tested on: HSC2 (primary human Schwann cells); assay: drug sensitivity score (DSS, CellTiter-Glo viability, 72 h) (DSS (dimensionless)); higher = more sensitive; extreme values may be limits of the assay
Outline: as §2

HS-PSS [17] = assay: as above
Outline: as §2

STS26T [18] = assay: as above
Outline: as §2

S462 [19] = assay: as above
Outline: as §2

HS-Sch-2 [20] = assay: as above
Outline: as §2

ST8814 [21] = assay: as above
Outline: as §2

[22] = tested on: HSC1 (primary human Schwann cells); assay: as above
Outline: as §2

YST-1 [23] = assay: as above
Outline: as §2

S1507-2 [24] = assay: as above
Outline: as §2

Structure (SMILES) | drug sensitivity score [1] | drug sensitivity score (HS-PSS [2]) | drug sensitivity score (STS26T [3]) | drug sensitivity score (ST8814 [4]) | drug sensitivity score [5] | drug sensitivity score (S1507-2 [6]) | % inhibition [7] | % inhibition (HS-PSS [8]) | % inhibition (STS26T [9]) | % inhibition (S462 [10]) | % inhibition (HS-Sch-2 [11]) | % inhibition (ST8814 [12]) | % inhibition [13] | % inhibition (YST-1 [14]) | % inhibition (S1507-2 [15]) | drug sensitivity score [16] | drug sensitivity score (HS-PSS [17]) | drug sensitivity score (STS26T [18]) | drug sensitivity score (S462 [19]) | drug sensitivity score (HS-Sch-2 [20]) | drug sensitivity score (ST8814 [21]) | drug sensitivity score [22] | drug sensitivity score (YST-1 [23]) | drug sensitivity score (S1507-2 [24])
C=C(c1ccc(C(=O)O)cc1)c1cc2c(cc1C)C(C)(C)CCC2(C)C [Bexarotene] (max concentration tested 10000 nM) | 0 | 0 | 0 | 0 | 0 | 1.23 ± 0.75 | -0.128% | -11.5% | -8.14% | -9.52 ± 9.1% | 4.76% | 5.83% | 11.7% | -1.34% | 22.7 ± 3.6% | 0 | 0 | 0 | 0 | 0 | 0 | 2.52 | 0 | 2.77 ± 0.55
CC(O)(CS(=O)(=O)c1ccc(F)cc1)C(=O)Nc1ccc(C#N)c(C(F)(F)F)c1 (stereo not drawn) [Bicalutamide] (max concentration tested 10000 nM) | 0 | 0 | 0 | 0 | 0 | 0 | -3.88% | 14.1% | 12% | 7.3 ± 7.9% | 12.8% | 7.2% | 11.9% | -3.03% | 0.808 ± 0.64% | 0 | 0.45 | 0.0466 | 0.149 ± 0.21 | 0.01 | 0 | 0.0562 | 0 | 0
CCNC(=O)CCC/C=C\C[C@@H]1[C@@H](/C=C/[C@@H](O)CCc2ccccc2)[C@H](O)C[C@@H]1O [Bimatoprost] (max concentration tested 5500 nM) | 0 | 0.89 | 0 | 0 | 0 | 0 | 9.6% | -11.6% | 7.31% | 9.55 ± 12% | -3.66% | 2.33% | 2.26% | 7.41% | 0.42 ± 0.85% | 0 | 0.89 | 0 | 0.502 ± 0.71 | 0.89 | 0 | 0 | 0 | 0.00145 ± 0.0021
Cc1c(N)nc([C@H](CC(N)=O)NC[C@H](N)C(N)=O)nc1C(=O)N[C@H](C(=O)N[C@H](C)[C@@H](O)[C@H](C)C(=O)N[C@H](C(=O)NCCc1nc(-c2nc(C(=O)NCCC[S+](C)C)cs2)cs1)[C@@H](C)O)[C@@H](O[C@@H]1O[C@@H](CO)[C@@H](O)[C@H](O)[C@@H]1O[C@H]1O[C@H](CO)[C@@H](O)[C@H](OC(N)=O)[C@@H]1O)c1c[nH]cn1 [Bleomycin] (max concentration tested 10000 nM) | 1.66 | 0.34 | 4.43 | 2.35 | 0 | 1.29 ± 0.61 | 54.5% | 53.2% | 62.1% | 68.4 ± 1.7% | 72.1% | 46.4% | 50.4% | 79.5% | 29.9 ± 7.5% | 8.81 | 5.94 | 5.46 | 5 ± 1.1 | 8.47 | 4.1 | 6.33 | 10.9 | 2.36 ± 0.43
CC(C)C[C@H](NC(=O)[C@H](Cc1ccccc1)NC(=O)c1cnccn1)B(O)O [Bortezomib] (max concentration tested 1000 nM) | 20.1 | 7.75 | 23.5 | 24.3 | 19.8 | 30.1 ± 4.9 | 102% | 93.5% | 102% | 102.5 ± 0.77% | 101% | 103% | 101% | 100% | 103.6 ± 0.17% | 25.7 | 14.4 | 23.7 | 27.4 ± 0.87 | 30 | 26.3 | 25.6 | 24.2 | 24.458 ± 0.016
COc1cc(Nc2c(C#N)cnc3cc(OCCCN4CCN(C)CC4)c(OC)cc23)c(Cl)cc1Cl [Bosutinib] (max concentration tested 10000 nM) | 3.59 | 5.37 | 5.46 | 7.01 | 1.14 | 6.25 ± 1.3 | 86% | 99.8% | 95.4% | 94.85 ± 0.58% | 100% | 96.5% | 80% | 100% | 96.4 ± 2% | 9.52 | 5.17 | 9.81 | 9.09 ± 1.4 | 9.19 | 9.35 | 7.12 | 6.63 | 9.52 ± 0.072
Cc1cc2c(F)c(Oc3ncnn4cc(OC[C@@H](C)O)c(C)c34)ccc2[nH]1 [Brivanib] (max concentration tested 1000 nM) | 0 | 0 | 0 | 0 | 0 | 0 | -0.326% | -3.58% | 4.35% | 3.36 ± 7.5% | -0.92% | -1.65% | -5.58% | 0.09% | -1.44 ± 10% | 0 | 0 | 0 | 0 | 0 | 0 | 0 | 0 | 0
